Test results reported in ChEMBL document CHEMBL1151194, “Synthetic analogues of the microtubule-stabilizing agent (+)-discodermolide: preparation and biological activity” (J Nat Prod, 2004).

Experiments:
Vero = assay: Cytotoxicity against african green monkey Vero cells; format: cell-based; details: Chlorocebus sabaeus
MCF7 = assay: Cytotoxicity against human MCF7 cells; format: functional, cell-based
P388 = assay: Cytotoxicity against mouse P388 cells; format: functional, cell-based
A549 = assay: Cytotoxicity against human A549 cells; format: functional, cell-based
[1] = Cytotoxicity against human NCI/ADR cells; format: functional, cell-based; details: NCI/ADR-RES
PANC-1 = assay: Cytotoxicity against human PANC1 cells; format: functional, cell-based

| SMILES | IC50 (Vero) [nM] | IC50 (MCF7) [nM] | IC50 (P388) [nM] | IC50 (A549) [nM] | IC50 [1] [nM] | IC50 (PANC-1) [nM] |
| --- | --- | --- | --- | --- | --- | --- |
| C=C/C=C\[C@H](C)[C@H](OC(N)=O)[C@@H](C)[C@H](O)[C@@H](C)C[C@](C)(O)[C@H]1[C@H](C)[C@@H](O)[C@@H](C)[C@@H]1/C=C/C[C@@H]1OC(=O)[C@H](C)[C@@H](O)[C@H]1C (relative stereo) | 16600 | 1730 | 2090 | 2640 | > 5000 | > 5000 |
| C=C/C=C\[C@H](C)[C@H](OC(N)=O)[C@@H](C)[C@H](O)[C@@H](C)C/C(C)=C\[C@H](C)[C@H]1O[C@H](C[C@@H]2OC(=O)[C@H](C)[C@@H](O)[C@H]2C)C=C[C@@H]1C | 3650 | 1800 | 1000 | 1460 | 4400 | 3130 |
| C=C/C=C\[C@H](C)[C@H](OC(N)=O)[C@@H](C)[C@H](O)[C@H](C)C[C@](C)(O)[C@H]1[C@H](C)[C@@H](O)[C@@H](C)[C@@H]1/C=C/C[C@@H]1OC(=O)[C@H](C)[C@@H](O)[C@H]1C (relative stereo) | 11400 | 7350 | 7650 | > 5000 | > 5000 | > 5000 |
| C=C/C=C\[C@H](C)[C@H](OC(N)=O)[C@@H](C)[C@H](O)[C@@H](C)C/C(C)=C\[C@H](C)[C@@H](O)[C@@H](C)/C=C\[C@@H](O)C[C@@H]1OC(=O)[C@H](C)[C@@H](O[Si](C)(C)C(C)(C)C)[C@H]1C | 420 | 960 | 790 | 1990 | 2800 | 2650 |
| C=C/C=C\[C@H](C)[C@H](OC(N)=O)[C@@H](C)[C@H](O)[C@@H](C)/C=C(\C)[C@H]1[C@H](C)[C@@H](O)[C@@H](C)[C@@H]1/C=C/C[C@@H]1OC(=O)[C@H](C)[C@@H](O)[C@H]1C | 21900 | 2100 | 2130 | 6640 | > 5000 | 6570 |
| C=C/C=C\[C@H](C)[C@H](OC(N)=O)[C@@H](C)[C@H](O)[C@@H](C)CC(=C)[C@H]1[C@H](C)[C@@H](O)[C@@H](C)[C@@H]1/C=C/C[C@@H]1OC(=O)[C@H](C)[C@@H](O)[C@H]1C | 690 | 130 | 190 | 100 | 3400 | 330 |
| C=C/C=C\[C@H](C)[C@H](OC(N)=O)[C@@H](C)[C@H](O)[C@@H](C)C[C@@](C)(O)[C@H]1[C@H](C)[C@@H](O)[C@@H](C)[C@@H]1/C=C/C[C@@H]1OC(=O)[C@H](C)[C@@H](O)[C@H]1C (mixture of isomers) | 4300 | 2360 | 2420 | 840 | > 5000 | 3030 |
| C=C/C=C\[C@H](C)[C@H](OC(N)=O)[C@@H](C)[C@H](O)[C@@H](C)C/C(C)=C\[C@H](C)[C@@H](O)[C@@H](C)/C=C\[C@@H](O)C[C@@H]1OC(=O)[C@H](C)[C@@H](O)[C@H]1C [DISERMOLIDE] | 30000 | 2.4 | 33 | 15 | 17 | 49 |
